Experimental data as given in article PMC10999543, “Identification of kinase modulators as host-directed therapeutics against intracellular methicillin-resistant Staphylococcus aureus” (Frontiers in Cellular and Infection Microbiology, 2024).
Read-outs that look alike come from different tables or passages of the source.

Tests used:
intracellular MRSA = type: cell-based, Staphylococcus aureus; conditions: for %GFP+ rep 1 / %GFP+ rep 2 / %GFP+ rep 3 / z-scoreMRSA+ mean / z-scoreMRSA+ rep 1 / z-scoreMRSA+ rep 2 / z-scoreMRSA+ rep 3: MRSA-infected HeLa cells; for %GFP+ rep 1 / z-scoreMRSA+ rep 1: replicate 1; for %GFP+ rep 2 / z-scoreMRSA+ rep 2: replicate 2; for %GFP+ rep 3 / z-scoreMRSA+ rep 3: replicate 3; for effect: Yes/No call from z-scoreMRSA+; for hit: Yes/No: effect without cell death; for z-scoreMRSA+ mean / z-scoreMRSA+ rep 1 / z-scoreMRSA+ rep 2 / z-scoreMRSA+ rep 3: compound screen; for z-scoreMRSA+ mean: mean of 3 replicates
Method: (§1) The cells were resuspended in cell culture medium without antibiotics, seeded with 10,000 cells/well into Costar flat-bottom 96-well plates (Corning, Amsterdam, the Netherlands), and were incubated overnight at 37°C/5% CO2. The next day, the bacteria were centrifuged at ≥1800 g for 15 min and resuspended in cold PBS + 5 mM ethylenediaminetetraacetic acid (EDTA). The number of CFUs present in the bacterial suspension was estimated from the optical density at 600 nm (OD600) by assuming 8x10^8 CFUs to be present in a bacterial suspension with OD600 = 1, based on prior titrations. The bacterial suspension was diluted in cell culture medium without antibiotics and added to the cells. Accuracy of the multiplicity of infection (MOI) was validated by plating serial dilutions of the MRSA inoculums on Difco TS agar plates (BD Biosciences). The calculated mean MOI throughout all experiments was 6.8 ± 4.6 (mean ± SD). Infected cells were centrifuged for 3 min at 150 g and incubated for 1 hour at 37°C/5% CO2. Next, the cells were incubated with fresh cell culture medium supplemented with 30 µg/ml gentamicin sulphate (Lonza BioWhittaker, Basel, Switzerland) for 15 min at 37°C/5% CO2 to kill residual extracellular bacteria. Infected cells were incubated overnight at 37°C/5% CO2 in cell culture medium in the presence of kinase inhibitors and 5 µg/ml gentamicin sulphate-containing medium to prevent the growth of extracellular bacteria. The solvent of the compounds, DMSO, was used at equal % v/v as a negative control. For the screen, each compound was tested in triplicate, on separate cell culture plates, resulting in triplicate values for each kinase inhibitor.
(§2) HeLa cells were harvested by trypsinization and fixed with 1% paraformaldehyde. Samples were measured on a FACSLyric with HTS extension (BD Biosciences). Flow cytometry data were analysed using FlowJo version 10 (TreeStar, Ashland, OR, USA). HeLa cells positive for GFP were gated to calculate the percentage of MRSA-infected cells. The cell count was used as surrogate readout of cell viability.
To identify potential “hit” compounds, the flow cytometry data were used to calculate standard z-scores using z = (x-μ)/σ – zneg, where x is total event count or the percent of GFP-positive cells from a single well, μ is the mean from wells of the plate, σ is the standard deviation of the plate and zneg is the mean z-score of the negative control of the plate (i.e., DMSO) ([Korbee et al., 2018]). To minimize the possibility that the presence of extreme values on a plate affected the z-scores, raw values that deviated two-fold from the negative controls were excluded when calculating plate means and standard deviations as used in the aforementioned formula. Compounds were considered a “hit” when z-scoreMRSA+ ≤ -2 and z-scoreHeLa ≥ -3 for cell count. In cases where compounds were screened twice, the average values were used to select hit compounds.

HeLa cells = assay: Compound screen by flow cytometry: HeLa cell count as surrogate readout of cell viability (z-scoreHeLa); type: cell-based, human; conditions: for cell count rep 1 / cell count rep 2 / cell count rep 3 / z-scoreHeLa mean / z-scoreHeLa rep 1 / z-scoreHeLa rep 2 / z-scoreHeLa rep 3: HeLa cell count; for cell count rep 1 / z-scoreHeLa rep 1: replicate 1; for cell count rep 2 / z-scoreHeLa rep 2: replicate 2; for cell count rep 3 / z-scoreHeLa rep 3: replicate 3; for cell death: Yes/No call from z-scoreHeLa; for z-scoreHeLa mean / z-scoreHeLa rep 1 / z-scoreHeLa rep 2 / z-scoreHeLa rep 3: compound screen; for z-scoreHeLa mean: mean of 3 replicates
Method: as §1, §2
To minimize the possibility that the presence of extreme values on a plate affected the z-scores, raw values that deviated two-fold from the negative controls were excluded when calculating plate means and standard deviations as used in the aforementioned formula. Compounds were considered a “hit” when z-scoreMRSA+ ≤ -2 and z-scoreHeLa ≥ -3 for cell count. In cases where compounds were screened twice, the average values were used to select hit compounds.

| SMILES | effect (intracellular MRSA) | hit (intracellular MRSA) | z-scoreMRSA+ mean (intracellular MRSA) | z-scoreMRSA+ rep 1 (intracellular MRSA) | z-scoreMRSA+ rep 2 (intracellular MRSA) | z-scoreMRSA+ rep 3 (intracellular MRSA) | cell death (HeLa cells) | z-scoreHeLa mean (HeLa cells) | z-scoreHeLa rep 1 (HeLa cells) | z-scoreHeLa rep 2 (HeLa cells) | z-scoreHeLa rep 3 (HeLa cells) | %GFP+ rep 1 (intracellular MRSA; PKIS compounds raw data) [%] | %GFP+ rep 2 (intracellular MRSA; PKIS compounds raw data) [%] | %GFP+ rep 3 (intracellular MRSA; PKIS compounds raw data) [%] | cell count rep 1 (HeLa cells; PKIS compounds raw data) | cell count rep 2 (HeLa cells; PKIS compounds raw data) | cell count rep 3 (HeLa cells; PKIS compounds raw data) | other results |
| --- | --- | --- | --- | --- | --- | --- | --- | --- | --- | --- | --- | --- | --- | --- | --- | --- | --- | --- |
| CN1CCN(Cc2ccc(NC(=O)Nc3ccc(N(C)c4ccnc(Nc5ccc(CS(C)(=O)=O)cc5)n4)cc3)cc2)CC1 [GW827654A] | No | No | 1.38 | 1.61 | 1.50 | 1.03 | No | 0.67 | 0.07 | 1.08 | 0.85 | – | – | – | – | – | – | %GFP+ rep 1 (intracellular MRSA; PKIS compound screen raw data): 24.8%; %GFP+ rep 2 (intracellular MRSA; PKIS compound screen raw data): 24.9%; %GFP+ rep 3 (intracellular MRSA; PKIS compound screen raw data): 25.0%; cell count rep 1 (HeLa cells; PKIS compound screen raw data): 30631; cell count rep 2 (HeLa cells; PKIS compound screen raw data): 31592; cell count rep 3 (HeLa cells; PKIS compound screen raw data): 23281 |
| Cc1ccc2c(c1)C(=NNc1ccc(S(N)(=O)=O)cc1)C(=O)N2 [GW275944X] | No | No | -0.10 | 0.33 | 0.27 | -0.91 | No | -0.43 | -1.23 | 0.11 | -0.16 | 14.2 | 14.3 | 12.8 | 3417 | 4418 | 6627 | – |
| COc1cccc(-n2nc(C)c3c(N/N=C(\C)c4ccncc4)ncnc32)c1 [GW809885X] | No | No | -1.40 | -0.98 | -1.45 | -1.76 | No | 0.65 | -0.42 | 2.02 | 0.35 | 10.1 | 9.2 | 10.0 | 4315 | 6939 | 7689 | – |
| CS(=O)(=O)Nc1ccc(N/C=C2\C(=O)Nc3ccccc32)cc1 [GW278681X] | No | No | -0.46 | -0.41 | 0.07 | -1.03 | No | -0.10 | -0.47 | 0.34 | -0.16 | 11.9 | 13.7 | 12.4 | 4258 | 4720 | 6630 | – |
